Source: ChEMBL document CHEMBL5136986, “DYRK1A inhibitors for disease therapy: Current status and perspectives” (Eur J Med Chem, 2022)
Values belong to the compound of their own block, whether it stands above or below them.

How the values were obtained:
[1] = biological target: T1, Dual specificity tyrosine-phosphorylation-regulated kinase 1A (Homo sapiens, UniProt Q13627); experiment: Inhibition of GST-fused recombinant human DYRK1A expressed in Escherichia coli using KKISGRLSPIMTEQ as substrate in presence of ATP
[2] = Displacement of [gamma-33P]-ATP from GSK-3 derived from porcine brain using YRRAAVPPSPSLSRHSSPHQSpEDEEE as substrate incubated for 30 mins by scintillation counting analysis; set-up: species or system Sus scrofa
[3] = biological target: T1, Dual specificity tyrosine-phosphorylation-regulated kinase 1A; experiment: Inhibition of DYRK1A (unknown origin) using KKISGRLSPIMTEQ as substrate incubated for 30 mins in presence of ATP by ADP-Glo assay
[4] = biological target: T1, Dual specificity tyrosine-phosphorylation-regulated kinase 1A; experiment: Inhibition of N-terminal 6His-tagged recombinant human DYRK1A ([…] residues) expressed in Escherichia coli BL21(DE3) using RARPGTPALRE as substrate incubated for 60 mins in presence of ATP/NADH by enzymatic assay
[5] = biological target: T1, Dual specificity tyrosine-phosphorylation-regulated kinase 1A; experiment: Inhibition of DYRK1A (unknown origin)

SMILES: O=c1c2c(ccc3nc(-c4cnccn4)sc32)ncn1Cc1ccccc1
- IC50 [1]: 113 nM
- IC50 [2]: 6000 nM

SMILES: O=c1c2c(ccc3nc(-c4cccnc4)sc32)ncn1Cc1ccccc1
- IC50 [2]: 3700 nM

- IC50 [3]: > 10000 nM
SMILES: O=C1c2c([nH]c3c(Cl)cccc23)CCC1N1CCCCC1 (centres undefined)

- IC50 [3]: 1600 nM
SMILES: O=C1CCCc2[nH]c3c(Cl)cccc3c21

- IC50 [4]: 12600 nM
SMILES: COc1c(CC=C(C)C)c(O)cc2oc(-c3ccc(O)cc3O)cc12 [LICOCOUMARONE]

SMILES: O=c1c2c(ccc3nc(-c4cccnc4)sc32)ncn1C1CC1
- IC50 [2]: 68 nM

- IC50 [5]: 243 nM
SMILES: Nc1ncc(-c2ccccc2F)nc1C(=O)Nc1cnccc1N1CCC(C(=O)O)CC1

- IC50 [5]: 39 nM
SMILES: Nc1ncc(-c2ccccc2)nc1C(=O)Nc1cnccc1N1CCC(N)CC1
